Assay results reported in patent US10213451B2, “Methods and compounds for modulating the secretion or expression of adhesion proteins or angiopoietins of cells” (PACIFIC ARROW LIMITED, priority 2004, dated 2019).

Experiments:
Assay type in all cases: cell-based, human
[1] = tested on: collagen expression in ES2 cells; experiment: Microarray gene expression, Table 5
Description: (§1) Y/D is the ratio (in folds) of gene expression in cells treated with compound Y as compared with those of the no drug control (D),
(§2) YM/D is the ratio of gene expression in cells treated with compound YM (ACH-Y, Y without sugar moiety) compared with those of the no drug control (D)
(§3) Cell culture and drug-treatment.: ES2 cells were seeded in a T-25 flask with 4.5 million cells per flask for 24 hours. Cell culture was replaced with fresh medium with xanifolia-Y (Y) or DMSO no drug control (D) for 24 hours. Cells were then harvested for RNA isolation. Three experiments were done.
(§4) RNA extraction, labeling, hybridization, and data analysis. RNA was extracted from tumor cells using the Qiagen RNeasy Kit. RNA quality and quantity was checked by the Agilent BioAnalyzer and the NanoDrop® ND-1000 spectrophotometer respectively before further manipulation. The first and second cDNA strands were synthesized from 20 ng of total RNA using the Affymetrix T7 oligo(dT) primer protocol and kit for the two-cycle amplification. To produce amplified biotin-labeled-cRNA, the cDNA was […] by in vitro transcription using the MegaScript kit from Ambion. 15.0 μg of the labeled cRNA was fragmented and re-checked for concentration using the NanoDrop® ND-1000 spectrophotometer. A hybridization cocktail containing Affymetrix spike-in controls and fragmented labeled cRNA was loaded onto the Human U133 Plus 2.0 GeneChip® oligonucleotide array. The Affymetrix array (Affymetrix, Inc. Santa Clara, Calif.) is comprised of over 1,300,000 unique oligonucleotide features that represent greater than 38,500 well-substantiated human genes. The array was hybridized for 16 hours at 45° C. with rotation at 60 rpm then washed and stained with a strepavidin, R-phycoerythrin conjugate stain on the Affymetrix Fluidicis Station 450. Signal amplification was done using biotinylated antistreptavidin. The arrays were scanned using the GeneChip® 3000 confocal laser scanner with autoloader. The images were analyzed and quality control metrics recorded using Affymetrix GCOS software version 1.4. Lastly, the expression value for each gene was calculated using dChip PM-only model based or Plier algorithm.
(§5) Pairwise comparisons were made as follows: Treated vs. Control (Y vs. D), Modified Drug vs Control (YM/ACY-H vs. D) and Treated vs. Modified Drug (Y vs. YM/ACH-Y) Cel files analyzed using the Bioconductor package of R Statistical programming. Limma analysis generated a reasonable number of changing genes between the samples.
(§6) The raw data in the .CEL files were normalized by the GCRMA method (robust multi-array analysis). It is implemented in Bioconductor (http://www.bioconductor.org/). The raw signal intensity data were normalized, background corrected and summarized based on certain statistical models, and an expression value, in log 2-scale, is obtained per chip per probe set. Then the null hypothesis was tested that there's no significant changes in gene expression between the treatment pairs. This was done by LIMMA and is also implemented in Bioconductor. It uses empirical Bayes method to estimate the variance in gene expression. One comparison was made, namely, High Grade vs. Low Grade. The raw p-values were adjusted by the Benjamnin-Hochberg method for false discovery rate (FDR) control. All data sets contained a significant number of genes with a p-value less than 0.05, which is that the probability that a gene is NOT differential expressed (false positive) is 1:20.

[2] = tested on: Fibronectin secretion from skin SK-Mel-5 cells; experiment: Fibronectin secretion (Western blot), SK-MEL-5 cells; details: Homo sapiens, 30 ug/ml
[3] = tested on: cadherins expression in ES2 cells; experiment: Microarray gene expression, Table 8
Description: as §1, §2, §3, §4, §5, §6

[4] = tested on: angiopoietin expression in ES2 cells; experiment: Microarray gene expression, Table 12
Description: as §1, §2, §3, §4, §5, §6

[5] = tested on: phosphatase, protein expression in ES2 cells; experiment: Microarray gene expression, Table 19
Description: as §1, §2, §3, §4, §5, §6

[6] = tested on: potassium channel, subfamily U, protein expression in ES2 cells; experiment: Microarray gene expression, Table 18; details: probe 237273_at
Description: as §1, §2, §3
RNA extraction, labeling, hybridization, and data analysis. RNA was extracted from tumor cells using the Qiagen RNeasy Kit. RNA quality and quantity was checked by the Agilent BioAnalyzer and the NanoDrop® ND-1000 spectrophotometer respectively before further manipulation. […] The images were analyzed and quality control metrics recorded using Affymetrix GCOS software version 1.4. Lastly, the expression value for each gene was calculated using dChip PM-only model based or Plier algorithm.
Pairwise comparisons were made as follows: Treated vs. Control (Y vs. D), Modified Drug vs Control (YM/ACY-H vs. D) and Treated vs. Modified Drug (Y vs. YM/ACH-Y) Cel files analyzed using the Bioconductor package of R Statistical programming. […]

[7] = tested on: heparin sulfate expression in ES2 cells; experiment: Microarray gene expression, Table 10
Description: as §1, §2, §3, §4, §5, §6

[8] = tested on: regulator of G-protein expression in ES2 cells; experiment: Microarray gene expression, Table 14
Description: as §1, §2, §3, §4, §5, §6

## C/C=C(/C)C(=O)O[C@H]1[C@H](OC(=O)/C(C)=C\C)[C@@]2(CO)C(CC1(C)C)C1=CCC3[C@@]4(C)CC[C@H](O)C(C)(C)C4CC[C@@]3(C)[C@]1(C)[C@@H](O)[C@H]2O (stereo partly drawn) [ACH-Y]
[1]; probe 200654_at
  P4HB procollagen-proline, 2-oxoglutarate 4-dioxygenase, beta polypeptide, gene expression ratio to no drug control (D): −1.3 folds
[1]; probe 200656_s_at
  P4HB procollagen-proline, 2-oxoglutarate 4-dioxygenase, beta polypeptide, gene expression ratio to no drug control (D): −1.2 folds
[1]; probe 200827_at
  PLOD1 procollagen-lysine 1,2-oxoglutarate 5-dioxygenase 1, gene expression ratio to no drug control (D): −1.2 folds
[1]; probe 201438_at
  COL6A3 collagen, type VI, alpha 3, gene expression ratio to no drug control (D): −1.5 folds
[1]; probe 202185_at
  PLOD3 procollagen-lysine, 2-oxoglutarate 5-dioxygenase 3, gene expression ratio to no drug control (D): −1.1 folds
[1]; probe 202311_s_at
  COL1A1 collagen, type I, alpha 1, gene expression ratio to no drug control (D): −3.6 folds
[1]; probe 202465_at
  PCOLCE procollagen C-endopeptidase enhancer, gene expression ratio to no drug control (D): −1.6 folds
[1]; probe 202619_s_at
  PLOD2 procollagen-lysine, 2-oxoglutarate 5-dioxygenase 2, gene expression ratio to no drug control (D): −1.2 folds
[1]; probe 202620_s_at
  PLOD2 procollagen-lysine, 2-oxoglutarate 5-dioxygenase 2, gene expression ratio to no drug control (D): −1.3 folds
[1]; probe 202733_at
  P4HA2 procollagen-proline, 2-oxoglutarate 4-dioxygenase, alpha polypeptide II, gene expression ratio to no drug control (D): −1.9 folds
[1]; probe 203325_s_at
  COL5A1 collagen, type V, alpha 1, gene expression ratio to no drug control (D): −2.8 folds
[1]; probe 207543_s_at
  P4HA1 procollagen-proline, 2-oxoglutarate 4-dioxygenase, alpha polypeptide I, gene expression ratio to no drug control (D): −1.5 folds
[1]; probe 208535_x_at
  COL13A1 collagen, type XIII, alpha 1, gene expression ratio to no drug control (D): −1.2 folds
[1]; probe 209081_s_at
  COL18A1 collagen, type XVIII, alpha 1, gene expression ratio to no drug control (D): −1.5 folds
[1]; probe 211343_s_at
  COL13A1 collagen, type XIII, alpha 1, gene expression ratio to no drug control (D): −1.7 folds
[1]; probe 211809_x_at
  COL13A1 collagen, type XIII, alpha 1, gene expression ratio to no drug control (D): −1.5 folds
[1]; probe 211966_at
  COL4A2 collagen, type IV, alpha 2, gene expression ratio to no drug control (D): −1.7 folds
[1]; probe 211981_at
  COL4A1 collagen, type IV, alpha 1, gene expression ratio to no drug control (D): −2.2 folds
[1]; probe 212091_s_at
  COL6A1 collagen, type VI, alpha 1, gene expression ratio to no drug control (D): −1.9 folds
[1]; probe 212489_at
  COL5A1 collagen, type V, alpha 1, gene expression ratio to no drug control (D): −4.1 folds
[1]; probe 213110_s_at
  COL4A5 collagen, type IV, alpha 5 (Alport syndrome), gene expression ratio to no drug control (D): −2.2 folds
[1]; probe 213290_at
  COL6A2 collagen, type VI, alpha 2, gene expression ratio to no drug control (D): −1.5 folds
[1]; probe 213992_at
  COL4A6 collagen, type IV, alpha 6, gene expression ratio to no drug control (D): −1.9 folds
[1]; probe 217428_s_at
  COL10A1 collagen, type X, alpha 1, gene expression ratio to no drug control (D): −1.2 folds
[1]; probe 221729_at
  COL5A2 collagen, type V, alpha 2, gene expression ratio to no drug control (D): −1.8 folds
[1]; probe 221730_at
  COL5A2 collagen, type V, alpha 2, gene expression ratio to no drug control (D): −1.6 folds
[1]; probe 231766_s_at
  COL12A1 collagen, type XII, alpha 1, gene expression ratio to no drug control (D): −2.4 folds
[1]; probe 242324_x_at
  CCBE1 collagen and calcium binding EGF domains 1, gene expression ratio to no drug control (D): −1.8 folds
[1]; probe 1556138_a_at
  COL5A1 collagen, type V, alpha 1, gene expression ratio to no drug control (D): −2.8 folds
[1]; probe 1568611_at
  P4HA2 procollagen-proline, 2-oxoglutarate 4-dioxygenase, alpha polypeptide II, gene expression ratio to no drug control (D): −2.4 folds
[1]; span over probes of Table 5
  expression ratio to the control, collagen: −1.1 to −3.6 folds
[2]
  inhibition at 30 µg/mL: 21%
[3]; probe 201533_at
  CTNNB1 catenin (cadherin-associated protein), beta 1, 88 kDa, gene expression ratio to no drug control (D): 1.2 folds
[3]; probe 202468_s_at
  CTNNAL1 catenin (cadherin-associated protein), alpha-like 1, gene expression ratio to no drug control (D): −1.6 folds
[3]; probe 203440_at
  CDH2 cadherin 2, type 1, N-cadherin (neuronal), gene expression ratio to no drug control (D): 1.0 folds
[3]; probe 204677_at
  CDH5 cadherin 5, type 2, VE-cadherin, gene expression ratio to no drug control (D): −1.1 folds
[3]; probe 204726_at
  CDH13 cadherin 13, H-cadherin (heart), gene expression ratio to no drug control (D): −1.7 folds
[3]; probe 207149_at
  CDH12 cadherin 12, type 2 (N-cadherin 2), gene expression ratio to no drug control (D): −2.2 folds
[3]; probe 208407_s_at
  CTNND1 catenin (cadherin-associated, protein), delta 1, gene expression ratio to no drug control (D): −1.7 folds
[3]; probe 210844_x_at
  CTNNA1 catenin (cadherin-associated protein), alpha 1, 102 kDa, gene expression ratio to no drug control (D): −1.2 folds
[3]; probe 244091_at
  CDH13 cadherin 13, H-cadherin (heart), gene expression ratio to no drug control (D): −1.7 folds
[4]; probe 205572_at
  ANGPT2 angiopoietin 2, gene expression ratio to no drug control (D): 1.4 folds
[4]; probe 205609_at
  ANGPT1 angiopoietin 1, gene expression ratio to no drug control (D): −1.2 folds
[4]; probe 211148_s_at
  ANGPT2 angiopoietin 2, gene expression ratio to no drug control (D): 1.4 folds
[4]; probe 221009_s_at
  ANGPTL4 angiopoietin-like 4, gene expression ratio to no drug control (D): −1.4 folds
[4]; probe 227533_at
  ANGPTL1 Angiopoietin-like 1, gene expression ratio to no drug control (D): −2.3 folds
[5]; probe 37028_at
  PPP1R15A protein phosphatase 1, regulatory (inhibitor) subunit 15A, gene expression ratio to no drug control (D): 5.6 folds
[5]; probe 202014_at
  PPP1R15A protein phosphatase 1, regulatory (inhibitor) subunit 15A, gene expression ratio to no drug control (D): 6.2 folds
[5]; probe 215501_s_at
  DUSP10 dual specificity phosphatase 10, gene expression ratio to no drug control (D): 7.1 folds
[5]; probe 221563_at
  DUSP10 dual specificity phosphatase 10, gene expression ratio to no drug control (D): 5.7 folds
[6]
  KCNU1 potassium channel, subfamily U, member 1, gene expression ratio to no drug control (D): −1.9 folds
[7]; probe 201655_s_at
  HSPG2 heparan sulfate proteoglycan 2 (perlecan), gene expression ratio to no drug control (D): −1.3 folds
[7]; probe 203284_s_at
  HS2ST1 heparan sulfate 2-O-sulfotransferase 1, gene expression ratio to no drug control (D): −1.7 folds
[7]; probe 219403_s_at
  HPSE Heparanase, gene expression ratio to no drug control (D): −1.3 folds
[8]; probe 204337_at
  RGS4 regulator of G-protein signalling 4, gene expression ratio to no drug control (D): −1.1 folds
[8]; probe 204338_s_at
  RGS4 regulator of G-protein signalling 4, gene expression ratio to no drug control (D): −1.1 folds
[8]; probe 204339_s_at
  RGS4 regulator of G-protein signalling 4, gene expression ratio to no drug control (D): −1.2 folds
